Tests used:
[1] = Dissolution test of Drug 2 dispersions (as in Example 1, with exceptions); type: physicochemical; conditions: 2000 μg/mL if all of the drug had dissolved, PBS pH 6.5, 37° C.
Protocol: For this test, samples containing 7.2 mg of the Example 1 dispersion were added to microcentrifuge tubes, in duplicate. The tubes were placed in a 37° C. temperature-controlled chamber, and 1.8 mL PBS at pH 6.5 and having an osmotic pressure of 290 mOsm/kg was added. The samples were mixed using a vortex mixer for about 60 seconds. The samples were centrifuged at 13,000 G at 37° C. for 1 minute. The resulting supernatant solutions were then sampled and diluted 1:6 by volume with methanol and then analyzed by high-performance liquid chromatography (HPLC) at a UV absorbance of 256 nm using a Waters Symmetry C8 column and a mobile phase consisting of 15% (0.2% H3PO4)/85% methanol. The contents of the tubes were mixed on the vortex mixer and allowed to stand undisturbed at 37° C. until the next sample was taken. […]
The solubility and physical properties of the dispersions of Example 4 and Control C2 were determined as in Example 1 with the following exceptions. For measurement of concentration enhancement, sufficient quantities of the dispersion were added to the microcentrifuge tubes such that the concentration if all of the drug had dissolved would be 2000 μg/mL. Samples were analyzed by HPLC, with absorbance at 297 nm (Hewlett Packard 1100 HPLC, Zorbax SB C18 column, 35% acetonitrile/65% H2O). The same properties of a control of crystalline Drug 2 (CD2) alone were also determined.

[2] = Dissolution test of Drug 1 dispersions in PBS (concentration enhancement); type: physicochemical; conditions: PBS pH 6.5, 37° C.
Protocol: For this test, samples containing 7.2 mg of the Example 1 dispersion were added to microcentrifuge tubes, in duplicate. The tubes were placed in a 37° C. temperature-controlled chamber, and 1.8 mL PBS at pH 6.5 and having an osmotic pressure of 290 mOsm/kg was added. The samples were mixed using a vortex mixer for about 60 seconds. The samples were centrifuged at 13,000 G at 37° C. for 1 minute. The resulting supernatant solutions were then sampled and diluted 1:6 by volume with methanol and then analyzed by high-performance liquid chromatography (HPLC) at a UV absorbance of 256 nm using a Waters Symmetry C8 column and a mobile phase consisting of 15% (0.2% H3PO4)/85% methanol. The contents of the tubes were mixed on the vortex mixer and allowed to stand undisturbed at 37° C. until the next sample was taken. […] Control 1 and crystalline Drug 1 alone were tested using the same procedure.
The concentrations of drug obtained in these samples were used to determine the value of the maximum concentration of drug in the first ninety minutes (Cmax90) and the area under the curve of drug concentration versus time in the first ninety minutes (AUC90).

Row | AUC90 [1] | Cmax90 [1] | AUC90 ([2]; Drug 1, area under the curve of drug concentration versus time in the first ninety minutes) | Cmax90 ([2]; Drug 1, maximum concentration of drug in the first ninety minutes) | Drug 1 Concentration ([2]; 7.2 mg dispersion in 1.8 mL, time 0 min) | AUC ([2]; elapsed time 0 min) | AUC ([2]; elapsed time 4 min) | AUC ([2]; elapsed time 10 min) | AUC ([2]; elapsed time 20 min) | AUC ([2]; elapsed time 40 min) | AUC ([2]; elapsed time 90 min) | AUC ([2]; elapsed time 1200 min) | Drug 1 Concentration ([2]; time 4 min) | Drug 1 Concentration ([2]; time 10 min) | Drug 1 Concentration ([2]; time 20 min) | Drug 1 Concentration ([2]; time 40 min) | Drug 1 Concentration ([2]; time 90 min) | Drug 1 Concentration ([2]; time 1200 min) | SMILES
1 | 12,800 min · μg/mL | 149 µg/mL | – | – | – | – | – | – | – | – | – | – | – | – | – | – | – | – | O=C(N[C@@H](Cc1ccccc1)[C@@H](O)C(=O)N1C[C@@H](O)[C@@H](O)C1)c1cc2cc(Cl)ccc2[nH]1 [CD2, 5-chloro-1H-indole-2-carboxylic acid [(1S)-benzyl-3-((3R,4S)-dihydroxypyrroldin-1-yl-)-(2R)-hydroxy-3-oxypropyl]amide]
2 | – | – | <88 µg·min/mL | <1 µg/mL | 0 µg/mL | 0 µg·min/mL | <2 µg·min/mL | <8 µg·min/mL | <18 µg·min/mL | <38 µg·min/mL | <88 µg·min/mL | <1,200 min · μg/mL | <1 µg/mL | <1 µg/mL | <1 µg/mL | <1 µg/mL | <1 µg/mL | <1 µg/mL | CCOC(=O)N1c2ccc(C(F)(F)F)cc2C(N(Cc2cc(C(F)(F)F)cc(C(F)(F)F)c2)C(=O)OC)CC1CC (stereo not drawn) [Crystalline Drug 1, 4-[(3,5-bis-trifluoromethyl-benzyl)-methoxycarbonyl-amino]-2-ethyl-6-trifluoromethyl-3,4-dihydro-2H-quinoline-1-carboxylic acid ethyl ester]

— US7780988B2, “Method for making homogeneous spray-dried solid amorphous drug dispersions using pressure nozzles” (Bend Research, Inc., priority 2002, dated 2010)
